Among the targets are Cytochrome P450 2C9 (Homo sapiens, UniProt P11712); Cytochrome P450 3A4 (Homo sapiens, UniProt P08684); Cytochrome P450 2D6 (Homo sapiens, UniProt P10635).
In the next data set the target is Cytochrome P450 2C19 (Homo sapiens, UniProt P33261). Briefly: Cytochrome panel assay with activity outcomes. Panel member name: p450-cyp2c19 Compounds with AC50 equal or less than 10 uM are considered active. Type of data set: functional.
For the next data set, the target named is T1, Cytochrome P450 1A2 (Homo sapiens, UniProt P05177).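 Further: PubChem cytochrome P450 panel assay, CYP1A2 panel member.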
T1 sequence (P05177 whole entry): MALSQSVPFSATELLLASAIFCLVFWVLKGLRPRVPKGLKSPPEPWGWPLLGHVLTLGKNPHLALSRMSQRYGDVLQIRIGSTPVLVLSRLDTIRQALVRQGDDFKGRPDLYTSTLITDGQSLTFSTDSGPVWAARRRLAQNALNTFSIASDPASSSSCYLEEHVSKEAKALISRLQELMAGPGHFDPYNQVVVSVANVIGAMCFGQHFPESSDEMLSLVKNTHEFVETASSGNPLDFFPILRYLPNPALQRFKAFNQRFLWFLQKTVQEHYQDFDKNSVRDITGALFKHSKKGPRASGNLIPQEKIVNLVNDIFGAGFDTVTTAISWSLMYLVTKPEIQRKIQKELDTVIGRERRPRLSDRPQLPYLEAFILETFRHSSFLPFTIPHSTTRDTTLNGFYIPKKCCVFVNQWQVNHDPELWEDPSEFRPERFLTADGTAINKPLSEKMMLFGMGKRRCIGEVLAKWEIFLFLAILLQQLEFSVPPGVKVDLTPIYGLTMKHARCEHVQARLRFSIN

Another data set deals with T2, Protein RecA (Mycobacterium tuberculosis, UniProt P9WHJ3).
T2 sequence (P9WHJ3 whole entry): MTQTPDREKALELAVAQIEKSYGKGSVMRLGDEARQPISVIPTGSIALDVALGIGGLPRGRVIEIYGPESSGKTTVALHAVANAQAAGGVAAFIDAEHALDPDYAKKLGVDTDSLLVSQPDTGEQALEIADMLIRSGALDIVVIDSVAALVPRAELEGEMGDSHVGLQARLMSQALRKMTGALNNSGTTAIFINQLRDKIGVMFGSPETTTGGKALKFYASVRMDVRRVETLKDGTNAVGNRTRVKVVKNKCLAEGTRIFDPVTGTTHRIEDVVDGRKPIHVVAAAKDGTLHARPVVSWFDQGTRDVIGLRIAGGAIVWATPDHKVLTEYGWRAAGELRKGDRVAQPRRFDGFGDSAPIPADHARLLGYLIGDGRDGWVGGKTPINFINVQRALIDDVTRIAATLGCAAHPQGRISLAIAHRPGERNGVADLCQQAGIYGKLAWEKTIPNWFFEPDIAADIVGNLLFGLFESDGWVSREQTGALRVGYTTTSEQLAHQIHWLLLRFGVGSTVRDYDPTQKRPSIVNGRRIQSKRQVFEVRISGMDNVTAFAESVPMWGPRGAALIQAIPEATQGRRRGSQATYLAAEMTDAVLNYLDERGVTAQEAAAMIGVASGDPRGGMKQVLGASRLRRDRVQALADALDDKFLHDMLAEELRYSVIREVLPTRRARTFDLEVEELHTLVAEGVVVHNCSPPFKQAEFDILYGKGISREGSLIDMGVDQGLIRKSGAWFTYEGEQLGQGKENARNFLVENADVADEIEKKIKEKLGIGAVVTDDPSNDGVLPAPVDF
Nature of the data set: Fluorescence Cell-Free Homogeneous Dose Retest to Identify Inhibitors of RecA-Intein Splicing Activity. [Related pubchem assays (depositor defined):AID2097, AID2223, AID489010, AID492950]. The data set is classed as functional.

The target of data set [1] is T3, Replicative DNA helicase DnaB (Mycobacterium tuberculosis, UniProt P9WMR3).
T3 sequence (P9WMR3 whole entry): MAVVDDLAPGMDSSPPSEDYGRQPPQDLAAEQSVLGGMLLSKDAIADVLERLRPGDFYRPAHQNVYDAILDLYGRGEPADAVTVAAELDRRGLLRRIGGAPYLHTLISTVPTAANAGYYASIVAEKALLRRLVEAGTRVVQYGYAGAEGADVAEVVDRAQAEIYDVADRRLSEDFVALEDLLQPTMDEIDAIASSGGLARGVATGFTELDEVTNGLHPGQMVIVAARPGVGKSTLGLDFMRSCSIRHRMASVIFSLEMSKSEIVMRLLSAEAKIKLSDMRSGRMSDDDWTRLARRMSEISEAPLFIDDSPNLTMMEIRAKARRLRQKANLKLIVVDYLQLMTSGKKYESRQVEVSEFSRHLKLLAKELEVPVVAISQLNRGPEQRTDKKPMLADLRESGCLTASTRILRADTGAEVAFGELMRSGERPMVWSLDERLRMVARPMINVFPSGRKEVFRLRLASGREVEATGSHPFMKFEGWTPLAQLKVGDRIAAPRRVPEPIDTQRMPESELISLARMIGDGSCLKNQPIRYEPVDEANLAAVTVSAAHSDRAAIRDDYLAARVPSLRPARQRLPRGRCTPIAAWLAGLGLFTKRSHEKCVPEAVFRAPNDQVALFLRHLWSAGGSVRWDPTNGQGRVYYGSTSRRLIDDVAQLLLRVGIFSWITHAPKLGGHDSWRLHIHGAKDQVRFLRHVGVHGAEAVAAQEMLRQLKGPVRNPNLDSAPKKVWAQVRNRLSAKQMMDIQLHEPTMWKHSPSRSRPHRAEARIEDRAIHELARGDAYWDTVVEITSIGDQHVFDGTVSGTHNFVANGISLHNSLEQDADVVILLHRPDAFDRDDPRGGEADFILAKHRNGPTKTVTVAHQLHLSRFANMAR
Briefly: DnaB intein splicing inhibitors, dose response, biochemical, cell-free fluorescence (AID 449749). The data set is classed as functional.

Data set [2] has as its target FAD-linked sulfhydryl oxidase ALR (Homo sapiens, UniProt P55789). Nature of the data set: inhibitors of human ALR sulfhydryl oxidase, dose response, biochemical, H2O2 detection, luminescence, cherry-pick (AID 493248).
A short description of data set [3]: inhibitors of HIV Env-driven cell fusion, dose response, cherry-pick (AID 652057). The data set is classed as functional, cell-based.
Data set [4] in a line: CEM21 lymphoblast cell cytotoxicity, dose response, cytotoxicity control for viral fusion inhibitor project, CellTiter-Glo luminescence, cherry-picked (AID 652042).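 Further: potency for signal decrease meaning cytotoxicity.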 The data set is classed as functional, cell-based. In general terms: Cellular ATP, detected with luciferase, serves as a proxy for viable cell number.
Data set [5] is described as follows: inhibitors of clade B AD8 Env fusion, dose response, cell-based, cherry-pick (AID 652062).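 Further: luciferase signal from cell-cell fusion driven by HIV-1 clade B AD8 Env; potency is for inhibitors of fusion seen as a drop in luminescence.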 Type of data set: functional.
The nature of data set [6]: off-target signal loss in HeLa-CEM21 co-culture – HeLa F-luc CTL cells, cherry-picked, counter-screen for HIV-1 Env fusion inhibitor project, dose response (AID 652040).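 Further: potency for signal decrease marking cytotoxic or nonspecific inhibition.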 The data set is classed as functional, cell-based. A general note: The purpose of a counterscreen is to sort out artefacts and off-target activity.
Data set [7] can be described thus: ZM109 Env clade C HIV-1 fusion inhibitors, dose response, HeLa effector, CEM target cells, luciferase, cherry-pick (AID 652058). Type of data set: functional, cell-based.
Data set [8] has as its target T4, Heat shock factor protein 1 (Mus musculus, UniProt P38532).
T4 sequence (P38532 whole entry): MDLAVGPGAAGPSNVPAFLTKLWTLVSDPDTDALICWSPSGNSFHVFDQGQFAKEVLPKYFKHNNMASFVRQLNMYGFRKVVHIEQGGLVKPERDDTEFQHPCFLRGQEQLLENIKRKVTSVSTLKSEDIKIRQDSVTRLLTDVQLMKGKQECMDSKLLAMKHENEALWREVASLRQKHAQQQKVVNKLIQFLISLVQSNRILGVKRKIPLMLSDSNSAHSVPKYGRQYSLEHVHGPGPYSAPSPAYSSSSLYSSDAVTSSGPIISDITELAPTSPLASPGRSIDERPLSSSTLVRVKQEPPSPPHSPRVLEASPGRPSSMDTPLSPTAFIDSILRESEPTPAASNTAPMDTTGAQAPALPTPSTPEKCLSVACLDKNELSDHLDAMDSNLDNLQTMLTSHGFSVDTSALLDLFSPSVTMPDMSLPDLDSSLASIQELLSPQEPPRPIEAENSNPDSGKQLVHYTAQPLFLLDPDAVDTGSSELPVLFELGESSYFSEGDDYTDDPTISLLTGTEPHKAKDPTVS
Briefly: HSF1 potentiators in luciferase reporter cells, confirmation, cell-based, NIH3T3, luminescence, dose retest (AID 435004).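 Further: stress induced by proteasome inhibitor MG132 added 30 min after compound; luciferase reporter driven by HSF1 response element in NIH3T3 cells; actives raise luminescence as potentiators of the MG132 stress response.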 The data set is classed as functional. For orientation: In a reporter assay the amount or activity of a reporter protein is the signal.

Another data set has as its system INS1. Nature of the data set: beta cell apoptosis inhibitors, cytokine rescue, dose response, luminescence, retest (AID 449756).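 Further: cell death triggered by IL-1 beta plus TNF-alpha plus IFN-gamma mixture; protective hits raise ATP signal compared with cytokine alone wells.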 The data set is classed as functional, cell-based. Conditions: Rattus norvegicus.
A short description of data set [9]: microbe, parasite or virus in culture. The data set is classed as functional. The note with it: Mycobacterium tuberculosis.

The source made the active and inactive calls.

Chain of Cytochrome P450 2C9 (P11712 whole entry): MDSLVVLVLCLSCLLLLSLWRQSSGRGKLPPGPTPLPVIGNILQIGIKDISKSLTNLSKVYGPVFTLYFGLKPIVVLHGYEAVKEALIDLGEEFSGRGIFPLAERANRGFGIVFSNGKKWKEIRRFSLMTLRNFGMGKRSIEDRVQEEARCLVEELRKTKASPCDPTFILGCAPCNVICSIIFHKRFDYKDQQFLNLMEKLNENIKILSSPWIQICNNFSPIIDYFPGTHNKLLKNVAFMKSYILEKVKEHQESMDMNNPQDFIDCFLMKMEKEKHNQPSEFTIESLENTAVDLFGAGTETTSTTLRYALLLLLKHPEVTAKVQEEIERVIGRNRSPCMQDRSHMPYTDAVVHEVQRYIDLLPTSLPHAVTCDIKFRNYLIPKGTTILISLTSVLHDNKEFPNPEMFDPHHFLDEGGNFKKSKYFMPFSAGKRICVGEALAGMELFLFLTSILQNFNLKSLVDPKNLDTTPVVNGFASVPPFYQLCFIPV
Chain of Cytochrome P450 2C19 (P33261 whole entry): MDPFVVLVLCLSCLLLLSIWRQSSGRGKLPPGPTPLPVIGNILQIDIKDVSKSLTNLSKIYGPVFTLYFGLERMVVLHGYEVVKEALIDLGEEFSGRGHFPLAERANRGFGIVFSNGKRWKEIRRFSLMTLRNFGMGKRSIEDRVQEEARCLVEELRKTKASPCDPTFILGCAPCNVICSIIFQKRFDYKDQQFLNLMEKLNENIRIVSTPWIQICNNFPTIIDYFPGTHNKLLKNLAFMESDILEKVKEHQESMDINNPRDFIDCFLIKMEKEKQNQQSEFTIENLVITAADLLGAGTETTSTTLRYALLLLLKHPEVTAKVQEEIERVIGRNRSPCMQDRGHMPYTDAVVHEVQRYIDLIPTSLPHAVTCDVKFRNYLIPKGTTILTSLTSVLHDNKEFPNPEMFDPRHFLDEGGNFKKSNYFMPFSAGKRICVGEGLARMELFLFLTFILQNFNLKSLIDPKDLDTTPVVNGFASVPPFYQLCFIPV
Chain of FAD-linked sulfhydryl oxidase ALR (P55789 whole entry, the tested form may be a part): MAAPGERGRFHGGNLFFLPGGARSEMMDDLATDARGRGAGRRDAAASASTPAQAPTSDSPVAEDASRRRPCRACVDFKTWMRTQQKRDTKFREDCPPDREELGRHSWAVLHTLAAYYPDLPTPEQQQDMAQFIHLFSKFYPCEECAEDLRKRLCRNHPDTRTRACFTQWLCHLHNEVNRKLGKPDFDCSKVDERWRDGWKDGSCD
Chain of Cytochrome P450 2D6 (P10635 whole entry): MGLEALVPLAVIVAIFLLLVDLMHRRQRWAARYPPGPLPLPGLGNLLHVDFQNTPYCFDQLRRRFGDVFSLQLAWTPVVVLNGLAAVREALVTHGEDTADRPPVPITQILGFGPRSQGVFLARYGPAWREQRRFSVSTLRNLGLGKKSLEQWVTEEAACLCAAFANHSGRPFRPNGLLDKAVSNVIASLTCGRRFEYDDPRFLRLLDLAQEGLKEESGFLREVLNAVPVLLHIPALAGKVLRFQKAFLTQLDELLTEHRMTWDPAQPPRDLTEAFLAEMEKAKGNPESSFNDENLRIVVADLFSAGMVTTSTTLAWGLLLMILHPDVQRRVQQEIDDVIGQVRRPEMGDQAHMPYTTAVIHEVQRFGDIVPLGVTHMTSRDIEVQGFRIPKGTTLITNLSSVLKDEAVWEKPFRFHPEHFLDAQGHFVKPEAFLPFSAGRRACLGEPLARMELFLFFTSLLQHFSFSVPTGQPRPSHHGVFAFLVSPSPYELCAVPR
Chain of Cytochrome P450 3A4 (P08684 whole entry): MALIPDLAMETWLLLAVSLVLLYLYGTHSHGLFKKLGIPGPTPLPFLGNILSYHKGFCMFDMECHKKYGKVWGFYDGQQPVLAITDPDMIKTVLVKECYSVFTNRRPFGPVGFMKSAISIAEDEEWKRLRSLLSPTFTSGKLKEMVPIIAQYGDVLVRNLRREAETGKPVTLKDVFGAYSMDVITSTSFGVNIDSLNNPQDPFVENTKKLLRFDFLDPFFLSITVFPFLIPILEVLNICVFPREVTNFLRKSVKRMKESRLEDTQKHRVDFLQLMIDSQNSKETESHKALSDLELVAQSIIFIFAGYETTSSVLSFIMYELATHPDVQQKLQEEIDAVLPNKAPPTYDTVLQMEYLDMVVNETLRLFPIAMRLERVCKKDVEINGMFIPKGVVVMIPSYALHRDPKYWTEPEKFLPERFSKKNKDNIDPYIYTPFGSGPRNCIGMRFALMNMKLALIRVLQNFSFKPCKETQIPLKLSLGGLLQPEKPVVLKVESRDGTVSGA

One may read the AC50 as the midpoint of the concentration-response curve, whichever way the signal moves. As to `O=C(Cc1ccccc1)N/N=C/C=C/c1cccc([N+](=O)[O-])c1`, the AC50 entry was “inconclusive” at Cytochrome P450 2C19, 15.8 µM (inconclusive) on Cytochrome P450 1A2 and “inconclusive” at Cytochrome P450 2C9.

For `Cc1ccc(NC(S)=NCCN2CCOCC2)cc1C`, the values for the AC50 on Cytochrome P450 3A4 and at Cytochrome P450 2C9 were 15.8 µM (inconclusive) and “inconclusive”, respectively.

Usually EC50 stands for the concentration giving half of the maximal effect. `CSc1nc(O)c(Nc2cccc(Cl)c2)c(O)n1`: the EC50 on Protein RecA was 1.92 µM (active). Besides, the AC50 in data set [1] was 64.9 µM (active); in [2] it was 1.14 µM (active).

`CCc1ccc(CN2CCN(C(=O)c3cccc(OC)c3OC)CC2)cc1`: the AC50 in data set [3] was 1.66 µM (active); in [4], 67.5 µM (active); in data set [5], 11.8 µM (active); in data set [6], 26.2 µM (active); in data set [7], 2.01 µM (active).

In the case of `CC(C)Cn1c(SCC(=O)c2c(N)n(C)c(=O)n(C)c2=O)nc2ccccc21`, the concentration at half-maximal activity (AC50) at Cytochrome P450 1A2 is 25.1 µM (inconclusive); at Cytochrome P450 2C9, “inconclusive”.

With `Cl.OC1(c2ccc(F)cc2)CCNC1` (stereo unspecified), the AC50 entry on Cytochrome P450 2C19 and on Cytochrome P450 2C9 was “inconclusive” throughout.

For the molecule `Cc1ccc(S(=O)(=O)c2c(N)n(CCC(C)C)c3nc4ccccc4nc23)cc1`, the EC50 is > 260 µM (inactive) in [8] and 3.98 µM (active) at Protein RecA. Moreover, the AC50 in data set [3] is 9.53 µM (active); in data set [4] it was 22.7 µM (active); in data set [5], 35.4 µM (active); in data set [6] it was 18.6 µM (active); in data set [1], > 380 µM (inactive); in data set [7], 24.9 µM (active).

`COc1ccccc1-c1cc(C(=O)Nc2cc(C)n(Cc3ccc(Cl)cc3)n2)no1`: the figures for the AC50 on Cytochrome P450 2D6, at Cytochrome P450 1A2 and at Cytochrome P450 2C9 were 891 nM (inconclusive), 0.794 µM (inconclusive) and “inconclusive”, respectively.

Regarding `Cc1cccc(CNc2ncnc3ccc(-c4ccc5c(c4)OCCO5)cc23)c1`, the concentration at half-maximal activity (AC50) in data set [3] was 27.9 µM (active); in data set [4], 5.98 µM (active); in [5] it was 8.48 µM (active); in [6], > 70 µM (inactive); in the data set with INS1, 7.74 µM (active); in data set [7] it was 5.84 µM (active). The CC50 in data set [9] is > 40 µM (active).

Regarding `COc1ccccc1NC(=O)c1nn(-c2cccc(C(F)(F)F)c2)ccc1=O`, at Cytochrome P450 2C9, the AC50 result is “inconclusive”.

The record behind these values is ChEMBL document CHEMBL1201862, “PubChem BioAssay data set” (2004).
